Data from PubChem BioAssay AID1259411 (Chemical Carcinogenesis Research Information System (CCRIS), 2018).
Activity calls are given as the source filed them. No rule for the calls is given here.

System: rodent carcinogenicity bioassays, tumor incidence
Assay: CCRIS carcinogenicity studies
Procedure, shortened: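 Archive of carcinogenicity, mutagenicity, tumor promotion and tumor inhibition results drawn from journals, NCI reports and other sources, expert-reviewed; covers 1985-2011 and is no longer updated.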

## C=C(C)[C@H]1Cc2c(ccc3c2O[C@@H]2COc4cc(OC)c(OC)cc4[C@@H]2C3=O)O1
Species: MOUSE, Strain/Sex: B6C3F1/FEMALE, Route: ORAL, Dose: 0, 600, 1200 PPM IN DIET FOR 103 WK (STUDY DURATION: 105 WK), Dose: 0, 600, 1200 PPM IN DIET FOR 103 WK (STUDY DURATION: 105 WK)
  carcinogen call: inactive; negative
Species: MOUSE, Strain/Sex: B6C3F1/MALE, Route: ORAL, Dose: 0, 600, 1200 PPM IN DIET FOR 103 WK (STUDY DURATION: 105 WK), Dose: 0, 600, 1200 PPM IN DIET FOR 103 WK (STUDY DURATION: 105 WK)
  carcinogen call: inactive; negative
Species: RAT, Strain/Sex: F344/FEMALE, Route: ORAL, Dose: 0, 38, 75 PPM IN DIET FOR 103 WK (STUDY DURATION: 105 WK), Dose: 0, 38, 75 PPM IN DIET FOR 103 WK (STUDY DURATION: 105 WK)
  carcinogen call: inactive; negative
Species: RAT, Strain/Sex: F344/MALE, Route: ORAL, Dose: 0, 38, 75 PPM IN DIET FOR 103 WK (STUDY DURATION: 105 WK), Dose: 0, 38, 75 PPM IN DIET FOR 103 WK (STUDY DURATION: 105 WK), Tumor Site: Type of Lesion: PARATHYROID GLAND: ADENOMA
  carcinogen call: equivocal
Species: RAT, Strain/Sex: WISTAR/FEMALE, Route: INTRAPERITONEAL, Dose: 0, 1, 2 MG/KG IN SUNFLOWER OIL 5 D/WK FOR 8 WK (STUDY DURATION: 18 MO), Dose: 0, 1, 2 MG/KG IN SUNFLOWER OIL 5 D/WK FOR 8 WK (STUDY DURATION: 18 MO)
  carcinogen call: inactive; negative
Species: RAT, Strain/Sex: WISTAR/FEMALE, Route: INTRAPERITONEAL, Dose: 0, 1, 2 MG/KG IN SUNFLOWER OIL/CHLOROFORM (9:1) 5 D/WK FOR 8 WK (STUDY DURATION: 18 MO), Dose: 0, 1, 2 MG/KG IN SUNFLOWER OIL/CHLOROFORM (9:1) 5 D/WK FOR 8 WK (STUDY DURATION: 18 MO)
  carcinogen call: inactive; negative

## ClC#CCl
Species: MOUSE, Strain/Sex: NMRI/FEMALE, Route: INHALATION, Dose: 0, 2 PPM 6 HR/D 1 D/WK FOR 18 MO (STUDY DURATION: LIFE), Tumor Site: Type of Lesion: KIDNEY: CYSTADENOMA, LUNG: ADENOMA, HARDERIAN GLAND: CYSTADENOMA, Tumor Site: Type of Lesion: KIDNEY: CYSTADENOMA, LUNG: ADENOMA, HARDERIAN GLAND: CYSTADENOMA
  carcinogen call: active; positive
Species: MOUSE, Strain/Sex: NMRI/FEMALE, Route: INHALATION, Dose: 0, 2 PPM 6 HR/D 2 D/WK FOR 18 MO (STUDY DURATION: LIFE), Tumor Site: Type of Lesion: HARDERIAN GLAND: CYSTADENOMA
  carcinogen call: active; positive
Species: MOUSE, Strain/Sex: NMRI/FEMALE, Route: INHALATION, Dose: 0, 9 PPM 6 HR/D 1 D/WK FOR 12 MO (STUDY DURATION: LIFE), Tumor Site: Type of Lesion: KIDNEY: CYSTADENOMA, HARDERIAN GLAND: CYSTADENOMA
  carcinogen call: active; positive
Species: MOUSE, Strain/Sex: NMRI/MALE, Route: INHALATION, Dose: 0, 2 PPM 6 HR/D 1 D/WK FOR 18 MO (STUDY DURATION: LIFE), Tumor Site: Type of Lesion: KIDNEY: CYSTADENOMA, CYSTADENOCARCINOMA, HARDERIAN GLAND: CYSTADENOMA
  carcinogen call: active; positive
Species: MOUSE, Strain/Sex: NMRI/MALE, Route: INHALATION, Dose: 0, 2 PPM 6 HR/D 2 D/WK FOR 18 MO (STUDY DURATION: LIFE), Tumor Site: Type of Lesion: KIDNEY: CYSTADENOMA, HARDERIAN GLAND: CYSTADENOMA
  carcinogen call: active; positive
Species: MOUSE, Strain/Sex: NMRI/MALE, Route: INHALATION, Dose: 0, 9 PPM 6 HR/D 1 D/WK FOR 12 MO (STUDY DURATION: LIFE), Tumor Site: Type of Lesion: KIDNEY: CYSTADENOMA, CYSTADENOCARCINOMA
  carcinogen call: active; positive
Species: RAT, Strain/Sex: WISTAR/FEMALE, Route: INHALATION, Dose: 0, 14 PPM 6 HR/D 2 D/WK FOR 18 MO (STUDY DURATION: LIFE), Tumor Site: Type of Lesion: KIDNEY: CYSTADENOMA, LIVER: CHOLANGIOMA, HEMOPOIETIC SYSTEM: MALIGNANT LYMPHOMA, Tumor Site: Type of Lesion: KIDNEY: CYSTADENOMA, LIVER: CHOLANGIOMA, HEMOPOIETIC SYSTEM: MALIGNANT LYMPHOMA
  carcinogen call: active; positive
Species: RAT, Strain/Sex: WISTAR/MALE, Route: INHALATION, Dose: 0, 14 PPM 6 HR/D 2 D/WK FOR 18 MO (STUDY DURATION: LIFE), Tumor Site: Type of Lesion: KIDNEY: CYSTADENOMA, LIVER: CHOLANGIOMA
  carcinogen call: active; positive

## COc1ccc(N)c(C)c1
Species: MOUSE, Strain/Sex: B6C3F1/FEMALE, Route: GAVAGE, Dose: 0, 0.06, 0.11 G/KG (FOR 53 WK), Dose: 0, 0.06, 0.11 G/KG (FOR 53 WK)
  carcinogen call: inactive; negative
Species: RAT, Strain/Sex: F344/FEMALE, Route: GAVAGE, Dose: 0, 0.08, 0.16 G/KG, Dose: 0, 0.08, 0.16 G/KG, Tumor Site: Type of Lesion: URINARY BLADDER: TRANSITIONAL CELL CARCINOMA
  carcinogen call: active; positive
Species: RAT, Strain/Sex: F344/MALE, Route: GAVAGE, Dose: 0, 0.08, 0.16 G/KG, Dose: 0, 0.08, 0.16 G/KG, Tumor Site: Type of Lesion: URINARY BLADDER: TRANSITIONAL CELL CARCINOMA
  carcinogen call: active; positive

## Cc1cccc(OCC(O)CNC(C)(C)C)c1[N+](=O)[O-] (stereo not given)
Species: RAT, Strain/Sex: WISTAR/FEMALE, Route: ORAL, Dose: 0, 25, 50, 100 MG/KG DAILY BY GAVAGE FOR 3 OR 6 MO, Dose: 0, 25, 50, 100 MG/KG DAILY BY GAVAGE FOR 3 OR 6 MO, Tumor Site: Type of Lesion: LIVER: NEOPLASTIC NODULE, HEPATOCELLULAR CARCINOMA
  carcinogen call: active; positive

## CCC(=O)CNCN=O
Species: HAMSTER, Strain/Sex: SYRIAN/FEMALE, Route: SUBCUTANEOUS, Dose: 4, 8, 16 MG/KG 1/WK FOR LIFE, Dose: 4, 8, 16 MG/KG 1/WK FOR LIFE, Tumor Site: Type of Lesion: NASAL CAVITY: ADENOCARCINOMA, PAPILLOMA, MUCOEPIDERMOID TUMOR, LARYNX OR PHARYNX: PAPILLARY POLYP, PAPILLOMA, ORAL CAVIT, Tumor Site: Type of Lesion: NASAL CAVITY: ADENOCARCINOMA, PAPILLOMA, MUCOEPIDERMOID TUMOR, LARYNX OR PHARYNX: PAPILLARY POLYP, PAPILLOMA, ORAL CAVIT
  carcinogen call: active; positive
Species: HAMSTER, Strain/Sex: SYRIAN/MALE, Route: SUBCUTANEOUS, Dose: 2.3, 4.6, 9.2 MG/KG 1/WK FOR LIFE, Dose: 2.3, 4.6, 9.2 MG/KG 1/WK FOR LIFE, Tumor Site: Type of Lesion: NASAL CAVITY: ADENOCARCINOMA, PAPILLOMA, MUCOEPIDERMOID TUMOR, LARYNX OR PHARYNX: PAPILLARY POLYP, PAPILLOMA, ORAL CAVIT, Tumor Site: Type of Lesion: NASAL CAVITY: ADENOCARCINOMA, PAPILLOMA, MUCOEPIDERMOID TUMOR, LARYNX OR PHARYNX: PAPILLARY POLYP, PAPILLOMA, ORAL CAVIT
  carcinogen call: active; positive

## [O-][Cl+2]([O-])O
Species: MOUSE, Strain/Sex: B6C3F1/FEMALE (50, 50, 50, 50), Route: DRINKING WATER, Dose: 0, 500, 1000, 2000 MG/L FOR 105 WKS (STUDY DURATION: 105 WKS), Dose: 0, 500, 1000, 2000 MG/L FOR 105 WKS (STUDY DURATION: 105 WKS), Tumor Site: Type of Lesion: PANCREAS: ADENOMA OR CARCINOMA
  carcinogen call: equivocal
Species: MOUSE, Strain/Sex: B6C3F1/MALE (50, 50, 50, 50), Route: DRINKING WATER, Dose: 0, 500, 1000, 2000 MG/L FOR 105 WKS (STUDY DURATION: 105 WKS), Dose: 0, 500, 1000, 2000 MG/L FOR 105 WKS (STUDY DURATION: 105 WKS)
  carcinogen call: inactive; negative
Species: RAT, Strain/Sex: F344/N/FEMALE (50, 50, 50, 50), Route: DRINKING WATER, Dose: 0, 125, 1000, 2000 MG/L FOR 105 WK (STUDY DURATION: 105 WKS), Dose: 0, 125, 1000, 2000 MG/L FOR 105 WK (STUDY DURATION: 105 WKS)
  carcinogen call: inactive; negative; ntp reports as some evidence for thyroid but p values are not statisti
Species: RAT, Strain/Sex: F344/N/MALE (50, 50, 50, 50), Route: DRINKING WATER, Dose: 0, 125, 1000, 2000 MG/L FOR 105 WK (STUDY DURATION: 105 WKS), Dose: 0, 125, 1000, 2000 MG/L FOR 105 WK (STUDY DURATION: 105 WKS), Tumor Site: Type of Lesion: THYROID: FOLLICULAR CELL ADENOMA OR CARCINOMA
  carcinogen call: active; positive (p = 0.052); ntp reports as some evidence

## CC(C)=CCC/C(C)=C/C=C/C(C)=C/C=C/C(C)=C/C=C/C=C(C)/C=C/C=C(C)/C=C/C=C(\C)CCC=C(C)C
Species: MOUSE, Strain/Sex: C57BL/6J/MALE, Route: ORAL, Dose: 0, 50, 200 PPM IN DRINKING WATER FOR 80 WK (STUDY DURATION: 80 WK), Dose: 0, 50, 200 PPM IN DRINKING WATER FOR 80 WK (STUDY DURATION: 80 WK)
  carcinogen call: inactive; negative
